Patent US11440870B2, “Cannabidiolic acid esters compositions and uses thereof” (Yissum Research Development Company of the Hebrew …, priority 2017, dated 2022)

Test system: LiCl-induced conditioned gaping (acute nausea) in rats
Assay: Acute nausea: LiCl-induced conditioned gaping (taste reactivity test) in rats
Type: in vivo, male Sprague-Dawley rats
Conditions: for LiCl-induced conditioned gaping relative to vehicle: 45 min before conditioning; for Lowest effective dose for suppression of acute nausea-induced conditioned gaping: i.p., rats (FIG. 3)
From the text: Animal procedures complied with the Canadian Council on Animal Care, and the protocols were approved by the Institutional Animal Care Committee at University of Guelph. Animal studies are reported in compliance with the ARRIVE guidelines (Kilkenny et al., 2010; McGrath and Lilley, 2015). A total of 200 näive male Sprague-Dawley rats, obtained from Charles River Laboratories (St Constant, Quebec), were used for all in vivo studies. Rats were individually housed (for acute nausea studies) or pair-housed [for anticipatory nausea and light-dark emergence studies] in home cages made of opaque white plastic (48×26×20 cm), containing bed-o-cob bedding from Harlan Laboratories, Inc. (Mississauga, Ontario), a brown paper towel, and Crinkl'Nest™ from The Andersons, Inc. (Maumee, Ohio). Additionally, in the home cage, rats were provided with a soft white paper container that was 14 cm long and 12 cm in diameter. All rats were subjected to an ambient temperature of 21° C. and a 12/12 h light-dark schedule (lights off at 07:00 h) and maintained on food (Highland Rat Chow [8640]) and water ad libitum. For the acute and anticipatory nausea studies, their body weights ranged from 263 to 329 g on the day of conditioning. For the light-dark emergence studies, their body weights ranged from 320 to 387 g on the day of test.
For the studies of acute nausea (in vivo experiment 1), rats were placed in taste reactivity (Grill and Norgren, 1978) chambers with their cannula attached to an infusion pump (Model KDS100, KD Scientific, Holliston, Mass., USA) for fluid delivery. The taste reactivity chambers were made of clear Plexiglas (22.5×26×20 cm) that sat on a table with a clear glass top. A mirror beneath the chamber at a 45° angle facilitated viewing of the ventral surface of the rat to observe orofacial responses. The conditioning chamber was in a dark room next to a 25 W light source. A video camera (Sony DCR-HC48, Henry's Cameras, Waterloo, ON, Canada) fire-wired into a computer was focused on the mirror and used to record each rat's orofacial reactions during the 2 min taste reactivity test. The video tapes were later scored using ‘The Observer’ (Noldus Information Technology Inc., Leesburg, Va., USA) software.
All rats were surgically implanted with an intraoral cannula according the procedures described by Limebeer et al. (2010). On the day of surgery, the rats were injected with an antibiotic (Derapin: […] s.c.; Pfizer Animal Health, Pfizer Canada Inc, Kirkland, Quebec, Canada) 30 min prior to being anaesthetized with isoflurane (4-5% induction, 1.5% maintenance in O2). Surgical plane anesthesia, as indicated by absence of the hind limb withdrawal reflex and defined by the Canadian Council of Animal Care, was induced before any surgery began, and was adjusted as necessary. Once sufficient anesthesia had been induced, a 2 cm^2 section of skin was shaved at the back of the neck at the level of the scapula. The skin was prepared by cleaning with soap (Bactistat; Ecolab, St. Paul, Minn., USA) and wiping with 70% isopropyl alcohol followed by 7% Betadine solution (Purdue Products L.P., Stamford, Conn., USA). Each rat was then administered a 5 mg·kg^−1 injection (i.p.) of the anti-inflammatory/analgesic drug carprofen (Rimadyl; Pfizer Canada Inc., Kirkland, Quebec, Canada). A thin-walled 15-gauge stainless steel needle was inserted into the shaved area on the neck, directed subcutaneously around the ear and brought out behind the first molar inside the mouth. A 10 cm length of Intra Medic PE90 tubing (Clay Adams Brand; Becton Dickinson and Co., Sparks, Md., USA) with an inner diameter of 0.86 mm and an outer diameter of 1.27 mm was then inserted through the needle after which the needle was removed. Betadine (10%) was applied to the puncture site and three elastic discs (2 cm^2) were placed over the exposed end of the tubing and drawn to the skin at the back of the neck for the purpose of stabilizing the cannula. […]

| Compound | LiCl-induced conditioned gaping relative to vehicle (0.1 μg·kg−1 i.p.) | LiCl-induced conditioned gaping relative to vehicle (1 μg·kg−1 i.p., P<0.05) | Lowest effective dose for suppression of acute nausea-induced conditioned gaping | Suppressive effect on acute nausea after 5-HT1A antagonist pretreatment (0.1 μg·kg−1 HU-580 i.p., WAY100635 0.1 mg·kg−1 15 min before) |
| --- | --- | --- | --- | --- |
| C=C(C)[C@@H]1CCC(C)=C[C@H]1c1c(O)cc(CCCCC)c(C(=O)O)c1O [CBDA, Cannabidiolic acid] | subthreshold | reduced LiCl-induced gaping responses relative to vehicle | 1 µg/kg |  |
| C=C(C)[C@@H]1CCC(C)=C[C@H]1c1c(O)cc(CCCCC)c(C(=O)OC)c1O [HU-580, Cannabidiolic Acid Methyl Ester] | reduced LiCl-induced conditioned gaping behavior relative to vehicle | reduced LiCl-induced gaping responses relative to vehicle | 0.1 µg/kg | blocked by WAY100635 |
